In ChEMBL document CHEMBL3045761, “One pot synthesis of some novel coumarins containing 5-(substituted-2-hydroxybenzoyl) pyridine as a new class of antimicrobial and antituberculosis agents” (2013):
≈ marks a conversion by molar mass, not a printed value.

Tests used:
Type in all cases: functional
[1] = system: Mycobacterium tuberculosis; experiment: Antitubercular activity against Mycobacterium tuberculosis H37Rv after 21 days by Lowenstein-Jensen method; conditions: 504 h
Aspergillus niger = experiment: Antifungal activity against Aspergillus niger MTCC 282 after overnight incubation by broth microdilution method
Candida albicans = experiment: Antifungal activity against Candida albicans MTCC 227 after overnight incubation by broth microdilution method
Salmonella typhi = experiment: Antibacterial activity against Salmonella enterica subsp. enterica serovar Typhi MTCC 98 after overnight incubation by broth microdilution method
Escherichia coli = experiment: Antibacterial activity against Escherichia coli MTCC 443 after overnight incubation by broth microdilution method
Bacillus subtilis = experiment: Antibacterial activity against Bacillus subtilis MTCC 441 after overnight incubation by broth microdilution method
Staphylococcus aureus = experiment: Antibacterial activity against Staphylococcus aureus MTCC 96 after overnight incubation by broth microdilution method

Compound	MIC90 [1] [µg/mL]	MIC99 (Aspergillus niger) [µg/mL]	MIC99 (Candida albicans) [µg/mL]	MIC99 (Salmonella typhi) [µg/mL]	MIC99 (Escherichia coli) [µg/mL]	MIC99 (Bacillus subtilis) [µg/mL]	MIC99 (Staphylococcus aureus) [µg/mL]
O=C(c1ccc(-c2cc3ccccc3oc2=O)nc1)c1ccccc1O	1000 (≈ 2910 µM)	1000 (≈ 2910 µM)	500 (≈ 1460 µM)	125 (≈ 364 µM)	100 (≈ 291 µM)	250 (≈ 728 µM)	200 (≈ 583 µM)
NYSTATIN	–	100	100	–	–	–	–
O=C(c1ccc(-c2cc3c(ccc4ccccc43)oc2=O)nc1)c1cc(Cl)ccc1O	500 (≈ 1170 µM)	100 (≈ 234 µM)	1000 (≈ 2340 µM)	250 (≈ 584 µM)	250 (≈ 584 µM)	125 (≈ 292 µM)	100 (≈ 234 µM)
Cc1ccc(O)c(C(=O)c2ccc(-c3cc4cc(Br)ccc4oc3=O)nc2)c1	100 (≈ 229 µM)	500 (≈ 1150 µM)	500 (≈ 1150 µM)	100 (≈ 229 µM)	100 (≈ 229 µM)	500 (≈ 1150 µM)	500 (≈ 1150 µM)
COC1=CC(=O)C[C@@H](C)[C@]12Oc1c(Cl)c(OC)cc(OC)c1C2=O [GRISEOFULVIN]	–	100 (≈ 283 µM)	500 (≈ 1420 µM)	–	–	–	–
O=C(c1ccc(-c2cc3cc(Br)ccc3oc2=O)nc1)c1cc(Cl)ccc1O	1000 (≈ 2190 µM)	> 1000	100 (≈ 219 µM)	100 (≈ 219 µM)	62.5 (≈ 137 µM)	100 (≈ 219 µM)	62.5 (≈ 137 µM)
O=C(c1ccc(-c2cc3cc(Br)ccc3oc2=O)nc1)c1ccccc1O	250 (≈ 592 µM)	> 1000	200 (≈ 474 µM)	125 (≈ 296 µM)	50 (≈ 118 µM)	100 (≈ 237 µM)	200 (≈ 474 µM)
COc1cccc2cc(-c3ccc(C(=O)c4ccccc4O)cn3)c(=O)oc12	500 (≈ 1340 µM)	> 1000	1000 (≈ 2680 µM)	250 (≈ 670 µM)	200 (≈ 536 µM)	200 (≈ 536 µM)	500 (≈ 1340 µM)
COc1cccc2cc(-c3ccc(C(=O)c4cc(C)ccc4O)cn3)c(=O)oc12	62.5 (≈ 161 µM)	500 (≈ 1290 µM)	1000 (≈ 2580 µM)	100 (≈ 258 µM)	100 (≈ 258 µM)	250 (≈ 645 µM)	250 (≈ 645 µM)
Cc1ccc(O)c(C(=O)c2ccc(-c3cc4c(ccc5ccccc54)oc3=O)nc2)c1	1000 (≈ 2450 µM)	1000 (≈ 2450 µM)	500 (≈ 1230 µM)	250 (≈ 614 µM)	200 (≈ 491 µM)	100 (≈ 245 µM)	125 (≈ 307 µM)
O=C(c1ccc(-c2cc3c(ccc4ccccc43)oc2=O)nc1)c1ccccc1O	250 (≈ 635 µM)	500 (≈ 1270 µM)	250 (≈ 635 µM)	250 (≈ 635 µM)	200 (≈ 508 µM)	100 (≈ 254 µM)	100 (≈ 254 µM)
CC1(C)S[C@@H]2[C@H](NC(=O)[C@H](N)c3ccccc3)C(=O)N2[C@H]1C(=O)O [AMPICILLIN]	–	–	–	100 (≈ 286 µM)	100 (≈ 286 µM)	250 (≈ 715 µM)	250 (≈ 715 µM)
COc1cccc2cc(-c3ccc(C(=O)c4cc(Cl)ccc4O)cn3)c(=O)oc12	500 (≈ 1230 µM)	> 1000	> 1000	200 (≈ 490 µM)	125 (≈ 307 µM)	200 (≈ 490 µM)	200 (≈ 490 µM)
Cc1ccc(O)c(C(=O)c2ccc(-c3cc4ccccc4oc3=O)nc2)c1	100 (≈ 280 µM)	1000 (≈ 2800 µM)	250 (≈ 700 µM)	200 (≈ 560 µM)	250 (≈ 700 µM)	200 (≈ 560 µM)	100 (≈ 280 µM)
O=C(c1ccc(-c2cc3ccccc3oc2=O)nc1)c1cc(Cl)ccc1O	250 (≈ 662 µM)	> 1000	500 (≈ 1320 µM)	250 (≈ 662 µM)	250 (≈ 662 µM)	200 (≈ 529 µM)	250 (≈ 662 µM)
